Results published in ChEMBL document CHEMBL4765389, “Antimicrobial and anti-inflammatory activities of short dodecapeptides derived from duck cathelicidin: Plausible mechanism of bactericidal action and endotoxin neutralization” (Eur J Med Chem, 2020).
The source made the active and inactive calls. The rule behind the calls is not given here.

Legend:
[1] = system: Staphylococcus epidermidis; experiment: Antibacterial activity against Staphylococcus epidermidis KCTC 1917 assessed as reduction in bacterial growth incubated for 24 hrs by CLSI based broth dilution method; format: functional; settings: read-out: MIC100
[2] = system: Bacillus subtilis; experiment: Antibacterial activity against Bacillus subtilis KCTC 3068 assessed as reduction in bacterial growth incubated for 24 hrs by CLSI based broth dilution method; format: functional; settings: read-out: MIC100
[3] = system: Staphylococcus aureus; experiment: Antibacterial activity against methicillin-resistant Staphylococcus aureus CCARM 3089 assessed as reduction in bacterial growth incubated for 24 hrs by CLSI based broth dilution method; format: functional; settings: read-out: MIC100
[4] = system: Staphylococcus aureus; experiment: Antibacterial activity against methicillin-resistant Staphylococcus aureus CCARM 3090 assessed as reduction in bacterial growth incubated for 24 hrs by CLSI based broth dilution method; format: functional; settings: read-out: MIC100
[5] = system: Enterococcus faecium; experiment: Antibacterial activity against vancomycin-resistant Enterococcus faecium ATCC 51559 assessed as reduction in bacterial growth incubated for 24 hrs by CLSI based broth dilution method; format: functional; settings: read-out: MIC100
[6] = system: Escherichia coli; experiment: Antibacterial activity against Escherichia coli KCTC 1682 assessed as reduction in bacterial growth incubated for 24 hrs by CLSI based broth dilution method; format: functional; settings: read-out: MIC100
[7] = Antibacterial activity against multidrug-resistant Pseudomonas aeruginosa CCARM 2109 assessed as reduction in bacterial growth incubated for 24 hrs by CLSI based broth dilution method; format: functional; settings: read-out: MIC100
[8] = system: Candida albicans; experiment: Antifungal activity against Candida albicans KCTC 7121 assessed as reduction in fungal growth incubated for 24 hrs by CLSI based broth dilution method; format: functional; settings: read-out: MIC100
[9] = system: Erythrocyte; experiment: Hemolytic activity in sheep RBC assessed as reduction in hemoglobin incubated for 1 hr; format: ADME, cell-based, Ovis aries
[10] = system: Bacteria; experiment: Antibacterial activity against Gram negative bacteria assessed as reduction in bacterial growth incubated for 24 hrs by CLSI based broth dilution method; format: functional; settings: read-out: MIC100
[11] = Therapeutic index, ratio of HC10 for sheep RBC to geometric mean MIC for gram negative bacteria; format: toxicity; settings: sheep red blood cells, read-out: TI
[12] = system: Escherichia coli; experiment: Antibacterial activity against Escherichia coli KCTC 1682 assessed as reduction in bacterial growth incubated for 24 hrs in presence of 150 mM NaCl by CLSI based broth dilution method; format: functional; settings: read-out: MIC100
[13] = system: Escherichia coli; experiment: Antibacterial activity against Escherichia coli KCTC 1682 assessed as reduction in bacterial growth incubated for 24 hrs in presence of 4.5 mM KCl by CLSI based broth dilution method; format: functional; settings: read-out: MIC100
[14] = system: Staphylococcus aureus; experiment: Antibacterial activity against Staphylococcus aureus KCTC 1621 assessed as reduction in bacterial growth incubated for 24 hrs in presence of 150 mM NaCl by CLSI based broth dilution method; format: functional; settings: read-out: MIC100
[15] = system: Staphylococcus aureus; experiment: Antibacterial activity against Staphylococcus aureus KCTC 1621 assessed as reduction in bacterial growth incubated for 24 hrs in presence of 4.5 mM KCl by CLSI based broth dilution method; format: functional; settings: read-out: MIC100
[16] = system: Staphylococcus aureus; experiment: Antibacterial activity against Staphylococcus aureus KCTC 1621 assessed as reduction in bacterial growth incubated for 24 hrs in presence of 6 uM NH4Cl by CLSI based broth dilution method; format: functional; settings: read-out: MIC100
[17] = system: Staphylococcus aureus; experiment: Antibacterial activity against Staphylococcus aureus KCTC 1621 assessed as reduction in bacterial growth incubated for 24 hrs in presence of 1 mM MgCl2 by CLSI based broth dilution method; format: functional; settings: read-out: MIC100
[18] = system: Staphylococcus aureus; experiment: Antibacterial activity against Staphylococcus aureus KCTC 1621 assessed as reduction in bacterial growth incubated for 24 hrs in presence of 2.5 mM CaCl2 by CLSI based broth dilution method; format: functional; settings: read-out: MIC100
[19] = system: Staphylococcus aureus; experiment: Antibacterial activity against Staphylococcus aureus KCTC 1621 assessed as reduction in bacterial growth incubated for 24 hrs in presence of 4 uM FeCl3 by CLSI based broth dilution method; format: functional; settings: read-out: MIC100
[20] = system: Staphylococcus aureus; experiment: Antibacterial activity against methicillin-resistant Staphylococcus aureus CCARM 3090 assessed as fractional inhibitory concentration incubated for 24 hrs in presence of chloramphenicol by CLSI based broth dilution method; format: functional
[21] = system: Staphylococcus aureus; experiment: Antibacterial activity against methicillin-resistant Staphylococcus aureus CCARM 3090 assessed as fractional inhibitory concentration incubated for 24 hrs in presence of ciprofloxacin by CLSI based broth dilution method; format: functional
[22] = system: Staphylococcus aureus; experiment: Antibacterial activity against methicillin-resistant Staphylococcus aureus CCARM 3090 assessed as fractional inhibitory concentration incubated for 24 hrs in presence of oxacillin by CLSI based broth dilution method; format: functional
[23] = system: Staphylococcus aureus; experiment: Antibacterial activity against methicillin-resistant Staphylococcus aureus CCARM 3090 assessed as fractional inhibitory concentration index incubated for 24 hrs in presence of chloramphenicol by CLSI based broth dilution method; format: functional
[24] = system: Staphylococcus aureus; experiment: Antibacterial activity against methicillin-resistant Staphylococcus aureus CCARM 3090 assessed as fractional inhibitory concentration index incubated for 24 hrs in presence of ciprofloxacin by CLSI based broth dilution method; format: functional
[25] = system: Staphylococcus aureus; experiment: Antibacterial activity against methicillin-resistant Staphylococcus aureus CCARM 3090 assessed as fractional inhibitory concentration index incubated for 24 hrs in presence of oxacillin by CLSI based broth dilution method; format: functional
[26] = Antibacterial activity against multidrug-resistant Pseudomonas aeruginosa CCARM 2095 assessed as reduction in bacterial growth incubated for 24 hrs in presence of oxacillin by CLSI based broth dilution method; format: functional; settings: read-out: MIC100
[27] = Antibacterial activity against multidrug-resistant Pseudomonas aeruginosa CCARM 2095 assessed as fractional inhibitory concentration incubated for 24 hrs in presence of ciprofloxacin by CLSI based broth dilution method; format: functional
[28] = Antibacterial activity against multidrug-resistant Pseudomonas aeruginosa CCARM 2095 assessed as fractional inhibitory concentration incubated for 24 hrs in presence of oxacillin by CLSI based broth dilution method; format: functional
[29] = Antibacterial activity against multidrug-resistant Pseudomonas aeruginosa CCARM 2095 assessed as fractional inhibitory concentration index incubated for 24 hrs in presence of ciprofloxacin by CLSI based broth dilution method; format: functional
[30] = Antibacterial activity against multidrug-resistant Pseudomonas aeruginosa CCARM 2095 assessed as fractional inhibitory concentration index incubated for 24 hrs in presence of oxacillin by CLSI based broth dilution method; format: functional
[31] = system: Escherichia coli; experiment: Bacteriostatic activity against Escherichia coli KCTC 1682 assessed as reduction in colony forming unit at 0.5 times MIC measured for 24 hrs by time kill assay; format: functional
[32] = system: Cell membrane; experiment: Induction of cell membrane permeability in Escherichia coli KCTC 1682 assessed as […] at 16 uM by ONPG dye based spectrophotometry; format: subcellular
[33] = system: Cell membrane; experiment: Induction of cell membrane permeability in Escherichia coli KCTC 1682 assessed as cytoplasmic membrane […] fluorescent signals at 2 times MIC measured after 1 hr by propidium iodide dye based flow cytometry analysis (reference value: 9.8 %); format: subcellular
[34] = system: DNA; experiment: Binding affinity to Escherichia coli pBR322 DNA assessed as increase in DNA retardation at 8 uM incubated for 1 hr by agarose gel electrophoresis relative to control; format: nucleic-acid assay
[35] = system: Lipopolysaccharide (LPS); experiment: Inhibition of Escherichia coli O111:B4 LPS aggregation assessed as increase in FITC-LPS dissociation by spectrofluorometry
[36] = system: RAW264.7; experiment: Antiinflammatory activity in mouse RAW264.7 cells assessed as suppression of LPS binding by measuring LPS-FITC aggregation at 10 uM pretreated with LPS for 1 hr followed by compound addition and measured after 30 mins by flowcytometry analysis (reference value: 67.93 %); format: functional; settings: 0.5 h

| Substance | MIC [1] [µM] | MIC [2] [µM] | MIC [3] [µM] | MIC [4] [µM] | MIC [5] [µM] | MIC [6] [µM] | MIC [7] [µM] | MIC [8] [µM] | HC10 [9] [µM] | MIC [10] [µM] | selectivity ratio [11] | MIC [12] [µM] | MIC [13] [µM] | MIC [14] [µM] | MIC [15] [µM] | MIC [16] [µM] | MIC [17] [µM] | MIC [18] [µM] | MIC [19] [µM] | FIC [20] | also measured |
| --- | --- | --- | --- | --- | --- | --- | --- | --- | --- | --- | --- | --- | --- | --- | --- | --- | --- | --- | --- | --- | --- |
| H-LWKKIYRKWKRW-NH2 | 4 | 2 | 16 | 8 | 8 | 4 | 4 | 4 | > 256 | 4 | 128 | 4 | 4 | 2 | 4 | 2 | 4 | 4 | 8 | 0.25 | FIC [21]: 0.125; FIC [22]: 0.125; fractional inhibitory concentration index (FICI) [23]: 0.5; fractional inhibitory concentration index (FICI) [24]: 0.375; fractional inhibitory concentration index (FICI) [25]: 0.375; MIC [26]: 64 µM; FIC [27]: 0.125; FIC [28]: 0.125; fractional inhibitory concentration index (FICI) [29]: 0.375; fractional inhibitory concentration index (FICI) [30]: 0.375; Activity [31]: 3 log10CFU/ml; Activity [32]: inactive; Activity [33]: 6.31%; Activity [34]: 100%; inhibition [35]: Dose-dependent effect; Activity [36]: 17.64% |
| H-LIKKIYRKWKRW-NH2 | 4 | 2 | 16 | 8 | 8 | 8 | 8 | 4 | > 256 | 5.6 | 91.4 | 4 | 2 | 8 | 4 | 8 | 4 | 4 | 8 | 0.25 | FIC [21]: 0.25; FIC [22]: 0.125; fractional inhibitory concentration index (FICI) [23]: 0.5; fractional inhibitory concentration index (FICI) [24]: 0.5; fractional inhibitory concentration index (FICI) [25]: 0.375; MIC [26]: 64 µM; FIC [27]: 0.125; FIC [28]: 0.125; fractional inhibitory concentration index (FICI) [29]: 0.375; fractional inhibitory concentration index (FICI) [30]: 0.375; Activity [31]: 3 log10CFU/ml; Activity [32]: inactive; Activity [33]: 9.53%; Activity [34]: 100%; inhibition [35]: Dose-dependent effect; Activity [36]: 32.51% |
